Laboratory results as given in patent US20220033397A1, “PHARMACEUTICAL COMPOUNDS AND THEIR USE AS INHIBITORS OF UBIQUITIN SPECIFIC PROTEASE 19 (USP19)” (ALMAC DISCOVERY LIMITED, priority 2018, published 2022).

Target: T1, Full-length USP19 (Homo sapiens, UniProt O94966)
T1 construct: Full-length USP19 was purchased from Boston Biochem (E-576); purchased Boston Biochem E-576
T1 sequence (O94966 1-1318): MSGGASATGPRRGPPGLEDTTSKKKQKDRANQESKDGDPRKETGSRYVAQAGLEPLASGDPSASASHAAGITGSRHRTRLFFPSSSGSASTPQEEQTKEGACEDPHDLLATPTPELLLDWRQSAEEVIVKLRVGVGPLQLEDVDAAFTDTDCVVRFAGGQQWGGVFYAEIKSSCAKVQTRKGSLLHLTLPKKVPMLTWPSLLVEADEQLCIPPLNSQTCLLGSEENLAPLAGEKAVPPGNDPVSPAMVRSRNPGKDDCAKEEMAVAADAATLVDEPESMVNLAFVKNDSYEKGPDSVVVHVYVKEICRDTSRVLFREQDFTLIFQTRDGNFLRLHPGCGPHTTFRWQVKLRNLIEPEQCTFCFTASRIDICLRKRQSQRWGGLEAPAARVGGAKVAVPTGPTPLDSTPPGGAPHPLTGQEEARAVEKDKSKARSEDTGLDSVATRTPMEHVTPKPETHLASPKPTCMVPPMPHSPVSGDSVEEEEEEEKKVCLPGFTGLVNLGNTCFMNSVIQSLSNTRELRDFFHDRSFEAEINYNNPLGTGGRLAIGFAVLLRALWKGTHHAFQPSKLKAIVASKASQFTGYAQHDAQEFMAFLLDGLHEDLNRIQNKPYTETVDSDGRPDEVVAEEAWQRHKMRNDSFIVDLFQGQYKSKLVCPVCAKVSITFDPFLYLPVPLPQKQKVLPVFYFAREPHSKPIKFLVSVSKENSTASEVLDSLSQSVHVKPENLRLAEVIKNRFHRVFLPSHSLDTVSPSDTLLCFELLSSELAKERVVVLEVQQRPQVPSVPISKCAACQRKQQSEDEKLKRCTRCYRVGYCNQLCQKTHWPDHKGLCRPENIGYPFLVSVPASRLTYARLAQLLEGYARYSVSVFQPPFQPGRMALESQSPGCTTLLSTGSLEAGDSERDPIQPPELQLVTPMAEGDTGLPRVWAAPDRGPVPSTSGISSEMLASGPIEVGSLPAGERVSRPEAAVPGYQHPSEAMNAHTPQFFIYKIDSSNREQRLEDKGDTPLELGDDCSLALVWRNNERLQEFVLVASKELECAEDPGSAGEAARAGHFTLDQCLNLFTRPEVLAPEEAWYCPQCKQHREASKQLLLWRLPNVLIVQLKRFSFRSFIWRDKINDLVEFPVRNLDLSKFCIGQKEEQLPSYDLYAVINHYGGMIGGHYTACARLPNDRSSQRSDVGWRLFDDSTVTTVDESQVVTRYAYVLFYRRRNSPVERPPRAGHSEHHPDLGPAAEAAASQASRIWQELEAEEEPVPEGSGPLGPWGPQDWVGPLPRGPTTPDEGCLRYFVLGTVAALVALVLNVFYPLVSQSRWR
Assay: USP19 fluorescence polarisation (FP) homogeneous assay with Ubiquitin-Lys-TAMRA substrate
Assay type: biochemical
Settings: 2.5 nM USP19, 30 min pre-incubation, average of at least two duplicate experiments
How it was run: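 Full-length USP19 preincubated 30 min at RT with inhibitor (200 μM to 2 μM series, 8–18 points) before adding 500 nM Ubiquitin-Lys-TAMRA substrate.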

Row | Compound | IC50
1 | O=C(NCC1(F)CCC1)N1CC[C@@](O)(Cn2cnc(-c3ccccc3)cc2=O)C2(CCCC2)C1 [Example 312, (S)—N-((1-Fluorocyclobutyl)methyl)-10-hydroxy-10-((6-oxo-4-phenylpyrimidin-1(6H)-yl)methyl)-7-azaspiro[4.5]decane-7-carboxamide] | 5000 to 50000 nM
2 | CN(CC1CC1)C(=O)N1CC[C@@](O)(Cn2cnc(-c3ccccc3)cc2=O)C2(CCCC2)C1 [Example 313, (S)—N-(Cyclopropylmethyl)-10-hydroxy-N-methyl-10-((6-oxo-4-phenylpyrimidin-1(6H)-yl)methyl)-7-azaspiro[4.5]decane-7-carboxamide] | 500 to 5000 nM
3 | O=C(N1CC[C@@](O)(Cn2cnc(-c3ccccc3F)cc2=O)C2(CCCC2)C1)N1CCNC[C@H]1c1ccccc1 [Example 314, 6-(2-Fluorophenyl)-3-(((S)-10-hydroxy-7-((R)-2-phenylpiperazine-1-carbonyl)-7-azaspiro[4.5]decan-10-yl)methyl)pyrimidin-4(3H)-one] | < 500 nM
4 | O=C(N1CC[C@@](O)(Cn2cnc(-c3cccc(F)c3)cc2=O)C2(CCCC2)C1)N1CCNC[C@H]1c1ccccc1 [Example 315, 6-(3-Fluorophenyl)-3-(((S)-10-hydroxy-7-((R)-2-phenylpiperazine-1-carbonyl)-7-azaspiro[4.5]decan-10-yl)methyl)pyrimidin-4(3H)-one] | < 500 nM
5 | O=C(N1CC[C@@](O)(Cn2cnc(-c3ccc(F)cc3)cc2=O)C2(CCCC2)C1)N1CCNC[C@H]1c1ccccc1 [Example 316, 6-(4-Fluorophenyl)-3-(((S)-10-hydroxy-7-((R)-2-phenylpiperazine-1-carbonyl)-7-azaspiro[4.5]decan-10-yl)methyl)pyrimidin-4(3H)-one] | < 500 nM
6 | COc1ccccc1-c1cc(=O)n(C[C@]2(O)CCN(C(=O)N3CCNC[C@H]3c3ccccc3)CC23CCCC3)cn1 [Example 317, 3-(((S)-10-Hydroxy-7-((R)-2-phenylpiperazine-1-carbonyl)-7-azaspiro[4.5]decan-10-yl)methyl)-6-(2-methoxyphenyl)pyrimidin-4(3H)-one] | < 500 nM
7 | CN(C)c1cc(=O)n(C[C@]2(O)CCN(C(=O)N3CCNC[C@H]3c3ccccc3)CC23CCCC3)cn1 [Example 318, 6-(Dimethylamino)-3-(((S)-10-hydroxy-7-((R)-2-phenylpiperazine-1-carbonyl)-7-azaspiro[4.5]decan-10-yl)methyl)pyrimidin-4(3H)-one] | < 500 nM
8 | CNc1cc(=O)n(C[C@]2(O)CCN(C(=O)N3CCNC[C@H]3c3ccccc3)CC23CCCC3)cn1 [Example 319, 3-(((S)-10-Hydroxy-7-((R)-2-phenylpiperazine-1-carbonyl)-7-azaspiro[4.5]decan-10-yl)methyl)-6-(methylamino)pyrimidin-4(3H)-one] | < 500 nM
9 | O=C(N1CC[C@@](O)(Cn2cnc(-c3ccccc3)cc2=O)C2(CCCC2)C1)N1CCNC[C@H]1c1cccc(F)c1 [Example 320, 3-(((S)-7-((R)-2-(3-Fluorophenyl)piperazine-1-carbonyl)-10-hydroxy-7-azaspiro[4.5]decan-10-yl)methyl)-6-phenylpyrimidin-4(3H)-one] | < 500 nM
10 | O=C(N1CCC(O)(Cn2cnc(-c3ccccc3)cc2=O)C2(CCOCC2)C1)N1CCNC[C@H]1c1ccccc1 (stereo partly drawn) [Example 321, 3-((5-Hydroxy-2-((R)-2-phenylpiperazine-1-carbonyl)-9-oxa-2-azaspiro[5.5]undecan-5-yl)methyl)-6-phenylpyrimidin-4(3H)-one] | < 500 nM
11 | CC1(C)CN(C(=O)N2CCNC[C@H]2c2ccccc2)CC[C@@]1(O)Cn1cnc(-c2ccccc2)cc1=O [Example 322, 3-(((S)-4-Hydroxy-3,3-dimethyl-1-((R)-2-phenylpiperazine-1-carbonyl)piperidin-4-yl)methyl)-6-phenylpyrimidin-4(3H)-one] | < 500 nM
12 | O=C(N1CC[C@@](O)(Cn2cnc(-c3ccccc3)cc2=O)C2(CCCC2)C1)N1CCN(CC(F)(F)F)C[C@H]1c1ccccc1 [Example 323, 3-(((S)-10-Hydroxy-7-((R)-2-phenyl-4-(2,2,2-trifluoroethyl)piperazine-1-carbonyl)-7-azaspiro[4.5]decan-10-yl)methyl)-6-phenylpyrimidin-4(3H)-one] | < 500 nM
13 | COc1cc(=O)n(C[C@]2(O)CCN(C(=O)N3CCNC[C@H]3c3ccccc3)CC23CCCC3)cn1 [Example 324, 3-(((S)-10-Hydroxy-7-((R)-2-phenylpiperazine-1-carbonyl)-7-azaspiro[4.5]decan-10-yl)methyl)-6-methoxypyrimidin-4(3H)-one] | < 500 nM
14 | O=C(N1CCC(O)(Cn2cnc(-c3ccccc3)cc2=O)C2(CCOCC2)C1)N1CCOC[C@H]1c1ccccc1 (stereo partly drawn) [Example 325, 3-((5-Hydroxy-2-((R)-3-phenylmorpholine-4-carbonyl)-9-oxa-2-azaspiro[5.5]undecan-5-yl)methyl)-6-phenylpyrimidin-4(3H)-one] | < 500 nM
15 | O=C(N1CC[C@@](O)(Cn2ccc(Cl)cc2=O)C2(CCCC2)C1)N1CCNC[C@H]1c1ccccc1 [Example 326, 4-Chloro-1-(((S)-10-hydroxy-7-((R)-2-phenylpiperazine-1-carbonyl)-7-azaspiro[4.5]decan-10-yl)methyl)pyridin-2(1H)-one] | < 500 nM

Next, values leading:

Row | IC50 | Compound
16 | < 500 nM | O=C(N1CC[C@@](O)(Cn2ccc(C3CC3)cc2=O)C2(CCCC2)C1)N1CCNC[C@H]1c1ccccc1 [Example 327, 4-Cyclopropyl-1-(((S)-10-hydroxy-7-((R)-2-phenylpiperazine-1-carbonyl)-7-azaspiro[4.5]decan-10-yl)methyl)pyridin-2(1H)-one]
17 | < 500 nM | Cn1nccc1-c1ccn(C[C@]2(O)CCN(C(=O)N3CCNC[C@H]3c3ccccc3)CC23CCCC3)c(=O)c1 [Example 328, 1-(((S)-10-Hydroxy-7-((R)-2-phenylpiperazine-1-carbonyl)-7-azaspiro[4.5]decan-10-yl)methyl)-4-(1-methyl-1H-pyrazol-5-yl)pyridin-2(1H)-one]
18 | < 500 nM | Cn1cc(-c2ccn(C[C@]3(O)CCN(C(=O)N4CCNC[C@H]4c4ccccc4)CC34CCCC4)c(=O)c2)cn1 [Example 329, 1-(((S)-10-Hydroxy-7-((R)-2-phenylpiperazine-1-carbonyl)-7-azaspiro[4.5]decan-10-yl)methyl)-4-(1-methyl-1H-pyrazol-4-yl)pyridin-2(1H)-one]
19 | < 500 nM | O=C(N1CC[C@@](O)(Cn2ccc(N3CCCC3)cc2=O)C2(CCCC2)C1)N1CCNC[C@H]1c1ccccc1 [Example 330, 1-(((S)-10-Hydroxy-7-((R)-2-phenylpiperazine-1-carbonyl)-7-azaspiro[4.5]decan-10-yl)methyl)-4-(pyrrolidin-1-yl)pyridin-2(1H)-one]
20 | < 500 nM | O=C(N1CCC(O)(Cn2cc(F)c(-c3ccccc3)cc2=O)C2(CCCC2)C1)N1CCNC[C@H]1c1ccccc1 (stereo partly drawn) [Example 331, 5-Fluoro-1-((10-hydroxy-7-((R)-2-phenylpiperazine-1-carbonyl)-7-azaspiro[4.5]decan-10-yl)methyl)-4-phenylpyridin-2(1H)-one]
21 | 500 to 5000 nM | O=C(N1CCC(O)(Cn2ccc(-c3ccccc3)c(F)c2=O)C2(CCCC2)C1)N1CCNC[C@H]1c1ccccc1 (stereo partly drawn) [Example 332, 3-Fluoro-1-((10-hydroxy-7-((R)-2-phenylpiperazine-1-carbonyl)-7-azaspiro[4.5]decan-10-yl)methyl)-4-phenylpyridin-2(1H)-one]
22 | < 500 nM | O=C(N1CCC(O)(Cn2cnc(-c3ccccc3)cc2=O)C2(CCCC2)C1)N1CCSCC1c1ccccc1 [Example 333, (S)-3-((10-Hydroxy-7-(3-phenylthiomorpholine-4-carbonyl)-7-azaspiro[4.5]decan-10-yl)methyl)-6-phenylpyrimidin-4(3H)-one]
23 | < 500 nM | N=S1(=O)CCN(C(=O)N2CC[C@@](O)(Cn3cnc(-c4ccccc4)cc3=O)C3(CCCC3)C2)C(c2ccccc2)C1 (stereo partly drawn) [Example 334, 3-(((10S)-10-Hydroxy-7-(1-imino-1-oxido-3-phenyl-1λ^6-thiomorpholine-4-carbonyl)-7-azaspiro[4.5]decan-10-yl)methyl)-6-phenylpyrimidin-4(3H)-one]
